Test results reported in patent US5120748A, “Substituted 1,2,3,6-tetrahydropyridines as central nervous system agents” (Warner-Lambert Company, priority 1991, dated 1992).

Key:
[1] = system: locomotor activity; test: Inhibition of locomotor activity in mice; format: in vivo; settings: Mus musculus, IP
Procedure: (§1) The compounds of Formula I are valuable dopaminergic agents. […] Thus, the compounds of Formula I were tested for their ability to inhibit locomotor activity in mice according to the assay described by J. R. McLean, et al, Pharmacology, Biochemistry and Behavior, Volume 8, pages 97-99 (1978); for their ability to inhibit [^3 H]-spiroperidol binding in a receptor assay described by D. Griogoriadis and P. Seeman, Journal of Neurochemistry, Volume 44, pages 1925-1935 (1985); and for their ability to inhibit dopamine synthesis in rats according to the protocol described by J. R. Walters and R. H. Roth, Naunyn-Schmiedeberg's Archives of Pharmacology, Volume 296, pages 5-14 (1976). The above test methods are incorporated herein by reference. The data in the table show the dopaminergic activity of representative compounds of Formula I.

[2] = system: brain dopamine synthesis; test: Reversal of brain dopamine synthesis in rats (inhibition of dopamine synthesis); format: in vivo; settings: 10 mg/kg, IP
Procedure: as §1

[3] = molecular target: [^3 H]spiroperidol binding; test: Inhibition of [^3 H]spiroperidol binding in a receptor assay; settings: [^3 H]spiroperidol radioligand
Procedure: as §1

Compound | ED50 [1] [mg/kg] | % Reversal of Brain Dopamine Synthesis in Rats [2] [%] | IC50 [3] [µM]
C1=C(c2ccccc2)CCN(CCSCc2cccnc2)C1.Cl.Cl [Example 1, 3-[[[2-(1,2,3,6-Tetrahydro-4-phenyl-1-pyridinyl)ethyl]thio]methyl]pyridine, dihydrochloride] | 0.18 | 70 | 
C1=C(c2cccs2)CCN(CCCSc2ccncc2)C1 [Example 2, 4-[[3-[3,6-Dihydro-4-(2-thienyl)-1(2H)-pyridinyl]propyl]thio]pyridine] | 0.5 |  | 86
C1=C(c2ccccc2)CCN(CCCSc2ccncc2)C1 [Example 3, 4-[[3-(3,6-Dihydro-4-phenyl-1(2H)-pyridinyl)propyl]thio]pyridine] | 0.4 | 48 | 46
C1=C(c2ccccc2)CCN(CCCCSc2ccncc2)C1 [Example 4, 1,2,3,6-Tetrahydro-4-phenyl-1-[4-(4-pyridinylthio)butyl]pyridine] | 1 | 82 | 92
C1=C(c2cccs2)CCN(CCCCSc2ccncc2)C1.Cl.Cl [Example 5, 1,2,3,6-Tetrahydro-1-[4-(4-pyridinylthio)butyl]-4-(2-thienyl)pyridine, dihydrochloride] | 1.8 | 47 | 190
